The target of assay [1] is T1, Cbl-b (Homo sapiens (Human), UniProt Q13191). The assay is described as follows: Cbl-b displacement assay (Cbl-b inhibition assay), Biological Example 8. Format: binding. As to conditions: 0.125 nM Cbl-b final concentration (Low); Table 8-1; read-out: Cbl-b IC50 (Low). A digest of the protocol: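 Biotinylated Avitag-Cbl-b (residues 36-427) at 0.5 nM ("High") or 0.125 nM ("Low") final was preincubated 1 h at room temperature with compound (1% DMSO) in 20 mM HEPES pH 7.5, 150 mM NaCl, 0.01% Triton X-100, 0.01% BSA, 0.5 mM TCEP. Then 150 nM BODIPY FL inhibitor probe (~EC40) plus 2 nM streptavidin-terbium, 1 h; TR-FRET 520/620 read, IC50 derived.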

Assay [2] has as its target T1, Cbl-b. The assay is described as follows: Cbl-b displacement assay (Cbl-b inhibition assay), TR-FRET probe displacement, Biological Example 1. Format: binding. The following applies: 0.5 nM Cbl-b final concentration (High); read-out: Cbl-b activity IC50 (High). A digest of the protocol: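 N-terminally Avitagged, biotinylated truncated Cbl-b (0.5 nM "High" or 0.125 nM "Low", final) pre-incubated 1 h at room temperature with compound (1% DMSO) in HEPES pH 7.5 buffer. Then 150 nM BODIPY FL probe (~EC40) plus 2 nM streptavidin-terbium for 1 h; TR-FRET read at 520/620 nm.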
In general terms: In TR-FRET formats the signal depends on donor and acceptor labels being close together.

pIC50: −log10 of the molar value.

T1 sequence (Q13191 36-427): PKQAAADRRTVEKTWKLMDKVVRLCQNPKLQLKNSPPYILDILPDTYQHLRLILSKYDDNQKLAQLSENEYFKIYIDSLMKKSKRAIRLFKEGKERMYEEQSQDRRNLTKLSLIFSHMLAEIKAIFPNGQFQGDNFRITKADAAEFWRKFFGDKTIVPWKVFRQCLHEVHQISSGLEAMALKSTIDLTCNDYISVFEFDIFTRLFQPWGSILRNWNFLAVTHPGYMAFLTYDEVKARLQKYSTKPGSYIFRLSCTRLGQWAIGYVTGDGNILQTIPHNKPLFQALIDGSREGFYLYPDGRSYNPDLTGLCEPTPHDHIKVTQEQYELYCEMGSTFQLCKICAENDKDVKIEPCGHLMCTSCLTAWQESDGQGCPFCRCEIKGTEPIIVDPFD

For orientation: pIC50 means the negative decadic logarithm of the IC50, by convention in mol/L. With `C[C@@H]1CN(Cc2cc3c(c(C(F)(F)F)c2)CN(c2cccc(C4(Cc5nncn5C)COC4)c2)C3=O)CCC1(F)F` [Compound 8, (R)-6-((4,4-difluoro-3-methylpiperidin-1-yl)methyl)-2-(3-(3-((4-methyl-4H-1,2,4-triazol-3-yl)methyl)oxetan-3-yl)phenyl)-4-(trifluoromethyl)isoindolin-1-one], the pIC50 at Cbl-b [1] was more than 9.00; at Cbl-b [2] it was 7.00 to 8.29.

The values above are taken from patent US11464802B2, “3-substituted piperidine compounds for Cbl-b inhibition, and use thereof” (Nurix Therapeutics, Inc., priority 2019, dated 2022).
